We go through three compounds from US20150297490A1, “COMPOSITIONS, USES AND METHODS FOR TREATING OR PREVENTING DENTAL CARIES” (APOLLONIA HEALTH INC., priority 2012, published 2015).

“And” between values parts separate entries of the source, which are not always exact repeats. Equal entries are not always repeated.

The subject of this assay is S. mutans UA159. Description: pH of culture medium of S. mutans biofilms after 1 minute incubation with test treatments. It counts as cell-based, Streptococcus mutans. The conditions noted are these: for pH of the medium, Average: average of samples; for pH of the medium: individual samples 1-4; for drop in pH of the medium (initial pH minus pH at 6 or 8 hours): 6 and 8 hours after treatment, FIGS. 2 and 3; for statistical significance of pH results compared to the water control: p<0.05. From the text: Amongst acidogenic bacteria, S. mutans is the principal etiological agent of caries in humans. Since there is a strong correlation between the proportion of S. mutans in dental plaque or in saliva relative to other bacterial species and the presence or risk of future outbreaks of dental caries, S. mutans in plaque or saliva may serve as an index for both dental caries activity state and dental caries risk or susceptibility. S. mutans UA159 strain was used in this Example.
On the first day, biofilm growth was initiated by inoculating 10 mL of 100% Todd-Hewitt broth (THYE) with 0.3% yeast extract at a pH of 7.0 with UA159 to prepare overnight cultures. The samples were incubated in closed screw-cap tubes without agitation at 37° C. in an anaerobic chamber (5% CO2).
On the second day, 1:100 dilutions were prepared by mixing 20 pl of the overnight UA159 cultures with ¼ THYE with 0.075% yeast extract supplemented with 0.1% sucrose to reach a final volume of 2 mL. The dilutions were then placed into the wells of 12-well plates.
On the third day, the 2 mL of medium was removed from each well. 1.0 mL of test treatment solution, as described below, was added to each well, after which the wells were incubated for 1 minute on the bench at room temperature. Next, the test treatment solutions were removed, and 3.0 mL of undiluted THYE with 0.3% yeast extract and no sucrose was added to each well.
If an internal pH control was required, fresh THYE was also added to two un-inoculated wells. During these steps, care was taken to avoid disrupting the biofilm.
Immediately after 100% THYE with 0.3% yeast extract was added to the wells following incubation with the test treatments, the initial pH of the medium in each well was measured. Samples were incubated at 37° C. in an open air, bench-top incubator, and the pH of the medium was measured once an hour for the next 7-8 hours. Finally, the pH of the medium in each well was measured again the next morning.

With `O=C([O-])O.[Na+]` [Sodium Bicarbonate, Sodium bicarbonate], the “drop in pH of the medium (initial pH minus pH at 6 or 8 hours)” value was “little to no effect on the drop in pH” and the “statistical significance of pH results compared to the water control” value is given as “statistically significant difference at 1 hour”. Further, under “0 hours after treatment”, the “pH of the medium, Average” value is on record as 7.51; the “pH of the medium” value is 7.48 and 7.39 and 7.58 and 7.59. Further, under “1 hour after treatment”, the “pH of the medium, Average” value worked out at 7.07; the “pH of the medium” value was 7.09 and 6.97 and 7.1 and 7.12. Further, under “2 hours after treatment”, the “pH of the medium, Average” value stood at 6.84; the “pH of the medium” value was 6.67 and 6.81 and 6.93 and 6.96. Also, for the setting “3 hours after treatment”, the “pH of the medium, Average” value is listed as 6.52; the “pH of the medium” value is 5.85 and 6.6 and 6.82 and 6.81. Further, under “4 hours after treatment”, the “pH of the medium, Average” value turned out to be 6.08; the “pH of the medium” value was 5.08 and 6.21 and 6.49 and 6.53. For the setting “5 hours after treatment”, the “pH of the medium, Average” value is on record as 5.69; the “pH of the medium” value was 5.03 and 5.7 and 5.97 and 6.06. In addition, under “6 hours after treatment”, the “pH of the medium, Average” value is 5.22; the “pH of the medium” value was 5 and 5.11 and 5.33 and 5.42. Under “7 hours after treatment”, the “pH of the medium, Average” value was 5.01; the “pH of the medium” value is 5 and 4.96 and 5.01 and 5.06. Moreover, under “8 hours after treatment”, the “pH of the medium, Average” value stood at 5.00; the “pH of the medium” value is 5.06 and 4.96 and 4.97.

`O.O.O=C([O-])CC(O)(CC(=O)[O-])C(=O)[O-].[Na+].[Na+].[Na+]` [Sodium Citrate, Sodium citrate dihydrate]: the “drop in pH of the medium (initial pH minus pH at 6 or 8 hours)” value is listed as “little to no effect on the drop in pH” and the “statistical significance of pH results compared to the water control” value is “no statistically significant difference at any time”. In addition, the “pH of the medium, Average” value (0 hours after treatment) was found to be 7.50. In addition, the “pH of the medium” value (0 hours after treatment, citrate dihydrate) was 7.5 and 7.35 and 7.57 and 7.58. Moreover, the “pH of the medium, Average” value (1 hour after treatment) came out at 7.05. For the same compound, the “pH of the medium” value (1 hour after treatment, citrate dihydrate) is 7.05 and 6.93 and 7.09 and 7.12. In addition, the “pH of the medium, Average” value (2 hours after treatment) was 6.83. Moreover, the “pH of the medium” value (2 hours after treatment, citrate dihydrate) was 6.69 and 6.75 and 6.91 and 6.95. Moreover, where the note is “3 hours after treatment”, the “pH of the medium, Average” value is reported as 6.50. For the same compound, the “pH of the medium” value (3 hours after treatment, citrate dihydrate) was 6.01 and 6.47 and 6.76 and 6.77. Further, the “pH of the medium, Average” value (4 hours after treatment) worked out at 6.00. Besides, the “pH of the medium” value (4 hours after treatment, citrate dihydrate) is 5.14 and 5.94 and 6.44 and 6.48. In addition, the “pH of the medium, Average” value (5 hours after treatment) amounted to 5.64. The “pH of the medium” value (5 hours after treatment, citrate dihydrate) was 5.02 and 5.49 and 5.96 and 6.07. In addition, the “pH of the medium, Average” value (6 hours after treatment) was found to be 5.22. Moreover, the “pH of the medium” value (6 hours after treatment, citrate dihydrate) is 4.98 and 5.06 and 5.36 and 5.46. Also, the “pH of the medium, Average” value (7 hours after treatment) came out at 5.00. Also, for the setting “7 hours after treatment, citrate dihydrate”, the “pH of the medium” value was 4.97 and 4.92 and 5.04 and 5.07. For the same compound, the “pH of the medium, Average” value (8 hours after treatment) is given as 4.97. In addition, the “pH of the medium” value (8 hours after treatment, citrate dihydrate) was 4.99 and 4.95 and 4.96.

For the compound `OC[C@@H](O)[C@H](O)[C@@H](O)CO` [Xylitol], the “drop in pH of the medium (initial pH minus pH at 6 or 8 hours)” value is “able to slow the pH drop”; the “statistical significance of pH results compared to the water control” value was “statistically significant difference at 1, 6, 7, and 8 hours”. Moreover, for the setting “0 hours after treatment”, the “pH of the medium, Average” value is given as 7.50; the “pH of the medium” value is 7.49 and 7.36 and 7.58 and 7.57. Besides, under “1 hour after treatment”, the “pH of the medium, Average” value came out at 7.08; the “pH of the medium” value is 7.08 and 7 and 7.12 (2×). Besides, where the note is “2 hours after treatment”, the “pH of the medium, Average” value stood at 6.87; the “pH of the medium” value was 6.72 and 6.82 and 6.97 (2×). For the setting “3 hours after treatment”, the “pH of the medium, Average” value is listed as 6.58; the “pH of the medium” value was 6.19 and 6.57 and 6.77 and 6.8. Also, under “4 hours after treatment”, the “pH of the medium, Average” value is 6.27; the “pH of the medium” value was 5.77 and 6.17 and 6.55 and 6.57. Also, under “5 hours after treatment”, the “pH of the medium, Average” value is 6.00; the “pH of the medium” value is 5.51 and 5.93 and 6.25 and 6.29. In addition, under “6 hours after treatment”, the “pH of the medium, Average” value is recorded as 5.72; the “pH of the medium” value was 5.23 and 5.55 and 6.05 and 6.06. Also, for the setting “7 hours after treatment”, the “pH of the medium, Average” value came to 5.52; the “pH of the medium” value was 5.1 and 5.37 and 5.78 and 5.82. Besides, under “8 hours after treatment”, the “pH of the medium, Average” value worked out at 5.45; the “pH of the medium” value is 5.09 and 5.58 and 5.68.
